For six molecules, IC50 results are on record in patent US7019007B2 (Syntex (U.S.A.) LLC, priority 2001, dated 2006).

Molecules are shown by their SMILES.

The target in this experiment is T1, CCR-3 receptor (Homo sapiens, UniProt P51677).
T1 construct: expressed in transfected cells; host or cells: L1.2 (murine pre-B lymphoma line) stably transfected with CCR-3
T1 sequence (P51677 1-355): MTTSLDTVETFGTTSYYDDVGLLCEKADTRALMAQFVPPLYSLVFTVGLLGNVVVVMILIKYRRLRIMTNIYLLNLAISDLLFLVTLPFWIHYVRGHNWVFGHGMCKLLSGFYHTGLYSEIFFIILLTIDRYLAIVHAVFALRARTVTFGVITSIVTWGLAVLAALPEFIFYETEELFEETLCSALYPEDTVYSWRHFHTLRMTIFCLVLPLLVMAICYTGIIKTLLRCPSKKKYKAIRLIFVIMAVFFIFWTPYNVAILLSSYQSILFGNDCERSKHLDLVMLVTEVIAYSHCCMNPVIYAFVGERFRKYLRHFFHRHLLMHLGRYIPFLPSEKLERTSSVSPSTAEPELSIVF
Put plainly: CCR-3 Receptor Binding Assay - In Vitro (inhibition of 125I eotaxin binding to CCR-3 L1.2 transfectant cells). The note with it: inhibition of binding of 125I-eotaxin to CCR-3 L1.2 transfectant cells, 1 hour at room temperature. The procedure: The CCR-3 antagonistic activity of the compounds of the invention was determined by their ability to inhibit the binding of ^125 I eotaxin to CCR-3 L1.2 transfectant cells (see Ponath, P. D. et al., J. Exp. Med., Vol. 183, 2437–2448, (1996)).
The assay was performed in Costar 96-well polypropylene round bottom plates. Test compounds were dissolved in DMSO and then diluted with binding buffer (50 mM HEPES, 1 mM CaCl2, 5 mM MgCl2, 0.5% bovine serum albumin (BSA), 0.02% sodium azide, pH 7.24) such that the final DMSO concentration was 2%. 25 μl of the test solution or only buffer with DMSO (control samples) was added to each well, followed by the addition of 25 μl of ^125I-eotaxin ([…]) (NEX314, New England Nuclear, Boston, Mass.) and 1.5×10^5 of the CCR-3 L1.2 transfected cells in 25 μl binding buffer. The final reaction volume was 75 μl.
After incubating the reaction mixture for 1 hour at room temperature, the reaction was terminated by filtering the reaction mixture through polyethylenimine treated Packard Unifilter GF/C filter plate (Packard, Chicago, Ill.). The filters were washed four times with ice cold wash buffer containing 10 mm HEPES and 0.5M sodium chloride (pH 7.2) and dried at 65° C. for approximately 10 minutes. 25 μl/well of Microscint-20® scintillation fluid (Packard) was added and the radioactivity retained on the filters was determined by using the Packard TopCount®.

`O=C(NC1CCCCC1)N[C@@H]1CCC[C@H]1N1CCC(Cc2ccc(Cl)cc2)CC1` registered an IC50 of 398 nM.
For `C=CCNC(=O)N[C@@H]1CCC[C@H]1N1CCC(Cc2ccc(Cl)cc2)CC1` the value was 499 nM; for `CC(C)NC(=O)N[C@@H]1CCC[C@H]1N1CCC(Cc2ccc(Cl)cc2)CC1`, 885 nM.
For `CCCCNC(=O)N[C@@H]1CCC[C@H]1N1CCC(Cc2ccc(Cl)cc2)CC1` the value was 507 nM; for `CCOC(=O)CCNC(=O)N[C@@H]1CCC[C@H]1N1CCC(Cc2ccc(Cl)cc2)CC1`, 729 nM.
In the case of `O=C(N[C@@H]1CCC[C@H]1N1CCC(Cc2ccc(Cl)cc2)CC1)C1CCCCC1` [Cyclohexanecarboxylic acid {(1R,2R)-2-[4-(4-chloro-benzyl)-piperidin-1-yl]-cyclopentyl}-amide] it was 2910 nM.
